Tests used:
[1] = target: Cannabinoid receptor 1 (Rattus norvegicus, UniProt P20272)
[2] = Partition coefficient (logD7.4); conditions: octanol/water, pH 7.4

Cannabinoid receptor 1, sequence (P20272 whole entry): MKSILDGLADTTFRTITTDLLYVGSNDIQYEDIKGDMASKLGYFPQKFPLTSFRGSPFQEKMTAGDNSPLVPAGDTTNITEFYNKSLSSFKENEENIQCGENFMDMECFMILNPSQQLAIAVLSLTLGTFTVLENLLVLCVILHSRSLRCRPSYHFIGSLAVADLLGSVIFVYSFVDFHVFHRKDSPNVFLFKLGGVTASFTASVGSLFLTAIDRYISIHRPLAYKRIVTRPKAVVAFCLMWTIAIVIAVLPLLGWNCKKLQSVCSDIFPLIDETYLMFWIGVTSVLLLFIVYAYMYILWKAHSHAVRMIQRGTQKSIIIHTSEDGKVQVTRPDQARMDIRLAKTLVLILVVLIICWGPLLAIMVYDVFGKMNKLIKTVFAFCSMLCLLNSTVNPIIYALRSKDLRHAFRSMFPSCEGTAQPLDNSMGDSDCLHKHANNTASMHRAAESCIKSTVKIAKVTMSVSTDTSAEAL

Compound	Ki [1]	logD [2]
Cc1c(C(=O)NN2CCCCC2)nn(-c2ccc(Cl)cc2Cl)c1-c1ccc2c(c1)OCO2	7.1 nM	–
COc1ccc(-c2c(C)c(C(=O)NN3CCCCC3)nn2-c2ccccc2F)cc1	37.8 nM	–
COc1ccc(-c2c(Br)c(C(=O)NN3CCCCCC3)nn2-c2ccc(Cl)cc2Cl)cc1	5.2 nM	–
O=C(NN1CCCCC1)c1nn(-c2ccc(Cl)cc2Cl)c(-c2ccc(Cl)cc2)c1Br	1.4 nM	–
COc1ccc(-c2c(F)c(C(=O)NN3CCCCC3)nn2-c2ccccc2Cl)cc1	18.2 nM	–
Cc1c(C(=O)NN2CCCCC2)nn(-c2ccc(Cl)cc2Cl)c1-c1ccc(OC2CCCN2C(=O)OC(C)(C)C)cc1 (centres undefined)	390 nM	–
COc1ccc(-c2c(C)c(C(=O)NN3CCCCCC3)nn2-c2ccc(Cl)cc2Cl)cc1	7 nM	–
COc1ccc(-c2c(Br)c(C(=O)NN3CCCCC3)nn2-c2ccccc2Cl)cc1	6.2 nM	–
COc1ccc(-c2c(C)c(C(=O)NN3CCCCC3)nn2-c2ccccc2Cl)cc1	8 nM	–
O=C(NN1CCCCC1)c1cc(-c2ccc(Cl)cc2)n(-c2ccc(Cl)cc2Cl)n1	9 nM	5.14
Cc1c(C(=O)NN2CCOCC2)nn(-c2ccc(Cl)cc2Cl)c1-c1ccc(I)cc1	4.5 nM	–
COc1ccc(-c2c(C)c(C(=O)NN3CCCCC3)nn2-c2ccccc2OC)cc1	440 nM	–
Cc1c(C(=O)NN2CCCCC2)nn(-c2ccc(Cl)cc2Cl)c1-c1ccc(O)cc1	104 nM	–

Reference: ChEMBL document CHEMBL1144888, “Synthesis, structure-activity relationship, and evaluation of SR141716 analogues: development of central cannabinoid receptor ligands with lower lipophilicity” (J Med Chem, 2003)
